{
  "source": "patent US10544468B2",
  "about": "“Molecular markers and phenotypic screening for metribuzin tolerance” (Monsanto Technology LLC, priority 2012, dated 2020)",
  "tested_on": "soybeans",
  "assay": "Field screening for metribuzin tolerance in soybeans (injury rating, 1-9 scale)",
  "assay_type": "in vivo, Glycine max",
  "conditions": "soybean lines containing a heterozygous (CT) allele of NGMAX006079502",
  "description": "A rating scale that evaluates the degree of metribuzin sensitivity can also be employed to identify “metribuzin sensitive” and “metribuzin tolerant” plants. An exemplary and non-limiting scale for evaluating the Metribuzin sensitivity phenotype is as follows, where a low number corresponds to a “metribuzin tolerance” phenotype and the a high number correlates to a “metribuzin sensitivity” phenotype: Field screening for metribuzin tolerance in soybeans was performed at the Monsanto Company Soybean Research Station near Mount Olive, N.C. in 2010 and 2011. Metribuzin application rate was 0.5 lbs/acre metribuzin (Sencor®, Bayer Crop Science, Research Triangle Park, N.C., USA) one day prior to planting. Rows were planted as single 6′ row plots with 9 seed per foot. Multiple repetitions were grown per row. Within 24 hours after planting, the trial was irrigated with 0.5″ of water to help incorporate and activate the herbicide. Injury ratings were taken fourteen to twenty one (14-21) days after planting using a 1-9 scale (for example, 1=no damage, 9=completely killed). After identifying the target region through the mapping population described in Example 2, a molecular marker was identified. An association study was done using a soybean molecular marker database. […]",
  "data": [
    {"molecule": "CSc1nnc(C(C)(C)C)c(=O)n1N", "note": "[Metribuzin, 4-Amino-6-(1,1-dimethylethyl)-3-(methylthio)-1,2,4-triazin-5(4H)-one]", "values": [
      {"measurement": "metribuzin phenotype in the field", "value": "mixed phenotype of both tolerance and sensitivity"}
    ]}
  ]
}
